“And” between values parts separate entries of the source, which are not always exact repeats. Equal entries are not always repeated.
What was measured:
[1] = tested on: JEV; test: virus yield reduction assay, JEV; type: cell-based; conditions: Japanese encephalitis virus, Vero, read-out: JEV EC50
Protocol: (§1) This example describes an assay used to evaluate inhibitor antiviral activity. Inhibitor screening, virus yield reduction, and cytotoxicity assays all employed Vero cells and media containing 2% FCS. Compound libraries were assayed for WNV antiviral activity by screening for protection of infected Vero cells from WNV cytopathic effects (CPE). To do so, 10^4 Vero cells in 96 well plate wells were pretreated with a final concentration of 10 μg/mL drug in a total volume of 1 μL DMSO, infected with WNV at a multiplicity of infection (MOI) of 0.2, and screened for protection from CPE for 3-5 d post-infection (PI). Virus yield reduction assays were modified from previous protocols (Hirsch, A., Medigeshi, G., Meyers, H., DeFilippis, V., Fruh, K., Briese, T., Lipkin, W. I., and Nelson, J. (2005). The Src family kinase c-Yes is required for maturation of West Nile virus particles. J. Virol. 79, 11943-11951). Briefly, 10^4 Vero cells in 96 well plate wells were treated with compound dilutions in 1 μL DMSO, and infected with WNV at an MOI of 1-3. At 20-24 h PI, virus-containing media samples were titered by limiting dilution on fresh Vero cells. After 5 d, media were removed, and surviving cells were stained with 0.0375% crystal violet in ethanol. For cytotoxicity assays, 10^4 Vero cells per 96 well plate well were treated with compound dilutions, grown for 48 h, and subjected to colorimetric assays for dehydrogenase levels in metabolically active cells using MTS (3-[4,5-dimethylthiazol-2-yl)-5-[3-carboxymethyoxy phenyl]-2-[4-sulfophenyl]-2H-tetrazolium]; Promega) substrate. MTS cytotoxicity assay results were confirmed microscopically by scoring for Trypan Blue (0.2%) exclusion.
(§2) Several antiviral sultams were evaluated in using these methods. The results, including CC50 and EC50 values for WNV and JEV, were determined by MTS cytotoxicity assays and virus yield reduction assays and are recorded in Table 2.

[2] = tested on: WNV; test: virus yield reduction assay, WNV; type: cell-based, West Nile virus; conditions: for EC50: West Nile virus, Vero, read-out: WNV EC50
Protocol: as §1, §2

[3] = tested on: Vero cells; test: MTS toxicity screening assay (3 d); type: cell-based; conditions: 10 μg/ml, subconfluent Vero cells
Source text: TYT-1 was screened for toxicities using a colorimetric cell proliferation assay which employs MTS substrate to measure dehydrogenase activity in metabolically active cells (Barltrop, J. et al. (1991) 5-(3-carboxymethoxyphenyl)-2-(4,5-dimethylthiazoly)-3-(4-sulfophenyl)tetrazolium, inner salt (MTS) and related analogs of 3-(4,5-dimethyl thiazolyl)-2,5-diphenyltetrazolium bromide (mTT) reducing to purple water-soluble formazans as cell-viability indicators. Bioorg. & Med. Chem. Lett. 1, 611).
In this assay, subconfluent Vero cells were untreated, or treated 3 d with 10 μg/ml compound, and then subjected to MTS dehydrogenase assays, in which 490 nm absorbance values are proportional to cell viability signals. Results were plotted as the percentage of all treated compounds versus the percentage of the assay signal for untreated samples. Thus, nontoxic compounds give a signal approximately 100% that of the untreated signal.

[4] = tested on: WNV E; test: WNV E protein expression by immunoblot; type: cell-based, West Nile virus; conditions: 5 μg/mL, Vero cells, MOI 5, 18 h PI
Protocol: For immunoblot detection of WNV E Vero cells on […] in 1 mL media were mock-treated with 5 μL DMSO or treated with 5 μL 1 mg/mL inhibitor compound in DMSO (final concentration 5 μg/mL inhibitor compound), and infected with WNV at an MOI of 5. At 18 h PI, media were removed, cells were collected in IPB (10 mM Tris-hydrochloride [pH 7.5], 150 mM NaCl, 1 mM ethylenediaminetetraacetic acid (EDTA), 0.1% sodium dodecyl sulfate [SDS], 0.5% sodium deoxycholate, 1% Triton X-100, 0.02% sodium azide), mixed with 1 volume of 2 x sample buffer (12.5 mM Tris-hydrochloride [pH 6.8], 2% SDS, 20% glycerol, 0.25% bromphenol blue) plus 0.1 volume of β-mercaptoethanol (β-Me). Samples were frozen at −20° C., heated 5 min to 90° C. and subjected to SDS-polyacrylamide gel electrophoresis (SDS-PAGE). After electrophoresis and electroblotting onto nitrocellulose filters, WNV E proteins were detected using a dilution of Mab 8150 as the primary antibody, an alkaline phosphatase-conjugated goat anti-mouse IgG secondary antibody (Promega), and a BCIP (5-bromo-4-chloro-3-indolyl phosphate) plus NBT (nitroblue tetrazolium)-mediated color reaction for visualization.
Immunoblotting was performed using a similar infection regime as in the immunofluorescence protocol. […] The WNV envelope protein was detected as a band at approximately 55 kDa in cells treated with DMSO, or with ineffective candidate inhibitors.

[5] = tested on: WNV E; test: WNV E protein expression by immunofluorescence; type: cell-based, West Nile virus; conditions: 10 μg/mL, Vero cells, MOI 3, 24 h PI
Protocol: E protein expression was assayed by immunofluorescence and immunoblotting. Immunofluorescent and immunoblot detection of WNV E employed a commercially available anti-E monoclonal antibody (Chemicon Mab 8150). For immunofluorescence, Vero cells in DMEM, plus penicillin, streptomycin, and 2% FCS were mock-treated with DMSO, or treated with 10 μg/mL of inhibitor compound in DMSO, and infected with WNV at an MOI of 3. At 24 h PI, cells were processed for immunofluorescent detection of WNV E using a standard protocol at room temperature (Arvidson, B., Seeds, J., Webb, M., Finlay, L., and Barklis, E. (2003). Analysis of the retrovirus capsid interdomain linker region. Virology 308, 166-177). Briefly, washed cells were fixed 20 min in 3.7% formaldehyde in phosphate-buffered saline (PBS; 9.5 mM sodium potassium phosphate [pH 7.4], 137 mM NaCl, 2.7 mM KCl), washed, permeabilized 10 min in 0.2% Triton X-100 in PBS, washed, incubated 1 h with primary antibody diluted in DMEM plus 10% heat inactivated FCS (DMEM+FCS), washed, incubated 1 h with 1:1000 diluted Alexafluor594-conjugated goat anti-mouse secondary antibody (Molecular Probes; Invitrogen) in DMEM+FCS, washed, and mounted with PBS in 50% glycerol. Images were collected electronically on a Zeiss fluorescence microscope.
A handful of E protein-positive cells was observed over the faint background staining of the majority of cells.

[6] = MTS cytotoxicity assay (48 h); type: cell-based; conditions: African green monkey; MTS, Vero cells, 48 h
Protocol: as §1, §2

[7] = tested on: Vero cells; test: MTS cytotoxicity assay (48 h); type: cell-based; conditions: highest drug concentrations employed
Protocol: as §1, §2

[8] = tested on: West Nile virus (WNV; strain NY99); test: protection of mice from WNV lethality; type: in vivo, C57BL/6N mice; conditions: 400 pfu WNV s.c.
Protocol: This example describes the protective effect exerted by examples of the disclosed compounds against challenge with flaviviruses. […] With reference to FIG. 2A, on day 0, two groups of five C57BL/6N mice each were injected subcutaneously with 400 plaque forming units (pfu) of West Nile virus (WNV; strain NY99). Four hours prior to virus infection, and at two and four days post-infection (PI), one set of mice was injected i.p. with 0.02 ml DMSO per mouse (mock), while the other set was injected with 10 mg/kg TYT-1 in 0.02 ml DMSO. Survival was tracked for 21 days PI, and results are plotted as overall percentage survival for each group, versus the number of days PI. […] With reference to FIG. 2B, two groups of C57BL/6N mice were infected on day 0 with WNV as described above. Prior to infection, the 15 mice in the mock group were injected subcutaneously with 0.025 ml of DMSO, while the 10 mice in the experimental group were injected with 10 mg/kg TYT-1 in DMSO. Mice subsequently were injected i.p. with DMSO or TYT-1 at days 2, 4, 6, 8; and survival was tracked as above. […] The combined results of these two trial yielded a survival rate of 6/20 for mock treated mice and 11/15 for TYT-1 treated mice.

[9] = tested on: WNV NY99; test: RT real-time PCR quantitation of WNV RNA; type: cell-based, West Nile virus; conditions: 5 μg/ml, MOI 5, 18 h PI
Protocol: Cells were DMSO mock-treated or treated with 5 μg/ml TYT-1, and then mock-infected or infected with WNV NY99 at an MOI of 5. At 18 h PI, RNAs were isolated from cells and subjected to reverse transcription (RT) real-time PCR quantitation of WNV RNA following the protocol of Briese et al. (Briese, T., Glass, W., and Lipkin, W. I. (2000). Detection of West Nile virus sequences in cerebrospinal fluid. Lancet 355, 1614-1615). […] Thus, inhibition of WNV NY99 replication by TYT-1 is accompanied by a reduction in viral protein and viral RNA expression levels.

[10] = tested on: WNV; test: protection of infected Vero cells from WNV cytopathic effects; type: cell-based, West Nile virus; conditions: WNV 0.2 MOI
Protocol: as §1, with “For cytotoxicity assays, 10^4 Vero cells per 96 well plate well were treated with compound dilutions, grown for 48 h, and subjected to colorimetric assays for dehydrogenase levels in metabolically active cells using MTS (3-[4,5-dimethylthiazol-2-yl)-5-[3-carboxymethyoxy phenyl]-2-[4-sulfophenyl]-2H-tetrazolium]; Promega) substrate. MTS cytotoxicity assay results were confirmed microscopically by scoring for Trypan Blue (0.2%) exclusion.” left out

Row | Compound | EC50 [1] [µM] | EC50 [2] [µM] | CC50 at 48 h [6] [µM] | 50% cytotoxicity [7] | further results
1 | O=S1(=O)CS/C(=N\C(=S)N(c2ccccc2)c2ccccc2)N1c1ccccc1 [TYT-1, N′-(1,1-dioxido-2-phenyl-1,4,2-dithiazolidin-3-ylidene)-N,N-diphenylthiourea] | 7 | 0.7 | > 70 | not obtained | reduction of viral titers ([2]; 1 μg/ml): at least 100 fold; reduction of WNV titers ([2]; repeated tests): 100- to 10,000 fold and 100-10,000 fold; MTS signal [3]: 136 % of untreated levels; E protein signal (immunoblot) [4]: essentially no E protein signal; cells expressing high levels of WNV E (immunofluorescence) [5]: very few cells; animals succumbed at 21 days ([8]; 10 mg/kg i.p. 4 h before infection and days 2, 4 PI, FIG. 2A): two out of five; survival rate, combined results of two trials ([8]; 10 mg/kg, 21 days PI): 11/15; WNV RNAs per cell [9]: 27 copies per cell
2 | CC(C)N(C(=S)/N=C1\SC(C)S(=O)(=O)N1C)C(C)C (stereo not shown) [TYT-2, (2,5-dimethyl-1,1-dioxido-1,4,2-dithiazolidin-3-ylidene)bis(1-methylethyl)thiourea] | 30 | 30 | 90 | – | –
3 | CC(C)N(C(=S)/N=C1\SCS(=O)(=O)N1Cc1ccccc1)C(C)C [TYT-3, [1,1-dioxido-2-(phenylmethyl)-1,4,2-dithiazolidin-3-ylidene]bis(1-methylethyl)-thiourea] | 8 | 80 | > 80 | not obtained | –
4 | O=S1(=O)CS/C(=N\C(=S)N(Cc2ccccc2)Cc2ccccc2)N1c1ccccc1 [TYT-4, (1,1-dioxido-2-phenyl-1,4,2-dithiazolidin-3-ylidene)-bis(phenylmethyl)-thiourea] | 65 | 22 | 65 | – | –
5 | NC(=O)c1ncn([C@@H]2O[C@H](CO)[C@@H](O)[C@H]2O)n1 [ribavirin, reference compound] | – | – | – | – | reduction of WNV titers ([2]; 100 μM): 10 fold; protection of cells from WNV challenge ([10]; <100 μM): failed to protect cells
6 | interferon alpha | – | – | – | – | protection of cells from WNV challenge ([10]; 1000 IU/ml): failed to protect cells
